# “Also recorded” adds a separate entry of the source.
# How the values were obtained:
# MM.1S and RPMI8226 cells = test: [3H]-thymidine uptake of MM cells adherent to BMSCs; format: cell-based, human
# Experimental: […] DNA synthesis was measured as described above.
# After treatment, DNA synthesis was measured by [^3H]-thymidine (Perkin Elmer, Boston Mass.) uptake, as previously described (44). All experiments were performed in quadruplicate.
# A549 lung cancer cells = settings: previously reported; cited from earlier work
# HDAC6 = biological target: T1, HDAC6 (Homo sapiens, UniProt Q9UBN7); test: Western blotting with anti-acetylated lysine / HDAC6 Abs; format: cell-based; set-up: MM.1S, U266, INA-6, RPMI8226, and RPMI-LR5 MM cell lines constitutively express HDAC6; endogenous in cells; host or cells: MM.1S, RPMI8226 and other MM cell lines; MM patient BMPCs/PBMCs
# T1 sequence (Q9UBN7 1-1215): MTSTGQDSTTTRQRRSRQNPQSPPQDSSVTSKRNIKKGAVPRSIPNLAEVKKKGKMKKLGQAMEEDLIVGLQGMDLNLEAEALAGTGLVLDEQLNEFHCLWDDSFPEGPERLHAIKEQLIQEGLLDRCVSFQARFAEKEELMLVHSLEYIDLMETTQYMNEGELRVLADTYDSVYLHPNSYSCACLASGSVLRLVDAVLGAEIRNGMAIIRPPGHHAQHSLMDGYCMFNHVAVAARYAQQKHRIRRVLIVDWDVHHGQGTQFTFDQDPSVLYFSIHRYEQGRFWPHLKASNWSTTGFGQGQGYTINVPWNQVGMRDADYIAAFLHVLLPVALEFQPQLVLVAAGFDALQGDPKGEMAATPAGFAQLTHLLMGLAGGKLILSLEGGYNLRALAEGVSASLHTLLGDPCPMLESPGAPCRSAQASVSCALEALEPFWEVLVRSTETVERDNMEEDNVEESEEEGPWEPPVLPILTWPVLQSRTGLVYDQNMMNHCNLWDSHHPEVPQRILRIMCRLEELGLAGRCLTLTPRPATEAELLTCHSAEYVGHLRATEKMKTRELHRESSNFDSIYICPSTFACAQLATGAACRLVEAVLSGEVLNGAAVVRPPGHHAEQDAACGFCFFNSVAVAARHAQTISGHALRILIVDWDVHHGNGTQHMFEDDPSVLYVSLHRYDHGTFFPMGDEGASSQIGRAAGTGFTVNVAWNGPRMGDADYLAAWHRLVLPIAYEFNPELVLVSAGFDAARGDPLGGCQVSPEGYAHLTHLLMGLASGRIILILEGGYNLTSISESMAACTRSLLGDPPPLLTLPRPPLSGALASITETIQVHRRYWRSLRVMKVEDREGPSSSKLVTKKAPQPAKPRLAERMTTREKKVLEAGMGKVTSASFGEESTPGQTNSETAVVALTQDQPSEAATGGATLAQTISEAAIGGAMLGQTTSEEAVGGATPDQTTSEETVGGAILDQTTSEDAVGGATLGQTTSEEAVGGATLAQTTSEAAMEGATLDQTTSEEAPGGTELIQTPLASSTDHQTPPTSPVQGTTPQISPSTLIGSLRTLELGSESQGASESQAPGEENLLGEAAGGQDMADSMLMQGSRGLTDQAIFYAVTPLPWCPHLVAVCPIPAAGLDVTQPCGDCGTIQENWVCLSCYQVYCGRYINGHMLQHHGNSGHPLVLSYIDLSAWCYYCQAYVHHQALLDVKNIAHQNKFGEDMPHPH
# Experimental: MM cells were cultured with Velcade and/or Tubacin; harvested; washed; and lysed using lysis buffer: 50 mM Tris-HCl (pH 7.4), 150 mM NaCl, 1% NP-40, 5 mM EDTA, 5 mM NaF, 2 mM Na3VO4, 1 mM PMSF, 5 μg/ml leupeptine, and 5 μg/ml aprotinin. Cell lysates were subjected to SDS-PAGE, transferred to PVDF membrane (Bio-Rad Laboratories, Hercules, Calif.), and immunoblotted with Abs against specific proteins.
# Cells cultured with tubacin and/or bortezomib were harvested; washed, and lysed using lysis buffer: 50 mM Tris-HCl (pH 7.4), 150 mM NaCl, 1% NP-40, 5 mM EDTA, 5 mM NaF, 1 mM Na3VO4, 1 mM PMSF, 5 μg/ml leupeptine, and 5 μg/ml aprotinin. Whole cell lysates were subjected to SDS-PAGE, transferred to nitrocellulose membrane (Bio-Rad Laboratories, Hercules, Calif.), and immunoblotted with specific Abs (31). Western blotting was done using anti-HDAC6, acetylated lysine, acetylated histone H3, acetylated histone H4, ubiquitin (Ub), phospho-SAPK (JNK), caspase-8 caspase-9, caspase-3, and PARP Abs (Cell Signaling, Beverly, Mass.); with anti-α-tubulin Ab (Santa Cruz Biotechnology, Santa Cruz, Calif.); as well as with anti-dynein Ab (Sigma, Saint Louis, Mo.). For immunoprecipitation, whole cell lysates were incubated with anti-Ub or dynein Abs overnight at 4° C., and then incubated with protein A/G PLUS-Agarose (Santa Cruz Biotechnology) for 2 h at 4° C., as in our prior study (31). Immunoprecipitates were then subjected to Western blotting for detection of HDAC6 and dynein.
# MM.1S and RPMI cells = test: Synergy with Velcade/Bortezomib in myeloma cell lines; format: cell-based
# MM.1S cells [1] = test: Cell cycle profile by flow cytometry (PI staining); format: cell-based, human; settings: 24 h
# Experimental: […] Cells were then stained with propidium iodine (PI, Sigma) (5 μg/ml) and cell cycle profile was determined using program M software on an Epics flow cytometer (Coulter Immunology, Hialeah, Fla.) (44).
# MM.1S cells [2] = test: [3H]-thymidine uptake with or without IL-6; format: cell-based, human; settings: tubacin 1.25-5 μM, IL-6 5-20 ng/ml, 48 h
# Experimental: Proliferation was measured by ^3H-thymidine uptake. Briefly, MM cells (3×10^4 cells/well) were incubated in 96-well culture plates in the presence of media, Velcade and/or Tubacin for 48 h at 37° C. DNA synthesis was measured by [^3H]-thymidine ([^3H]-TdR, Perkin Elmer, Boston, Mass.) uptake. Cells were pulsed with [^3H]TdR (0.5 μCi/well) during the last 8 h of 48 h cultures. All experiments were performed in triplicate.
# breast cancer cells = test: Synergy of bortezomib and tubacin in breast cancer; format: cell-based
smiles,measurement,setting,value
O=C(CCCCCCC(=O)Nc1ccc([C@H]2O[C@@H](CSc3nc(-c4ccccc4)c(-c4ccccc4)o3)C[C@@H](c3ccc(CO)cc3)O2)cc1)NO [tubacin],"BMSC-induced [3H]-thymidine uptake / MM cell growth with BMSCs, single agent","MM.1S and RPMI8226 cells; MM cells adherent to BMSCs, 24 h",inhibits BMSC-induced [^3H]-thymidine uptake in a dose-dependent fashion; also recorded: significantly inhibits MM.1S cell growth even in the presence of BMSCs; also recorded: inhibits paracrine MM cell growth
same,effect of tubacin on bortezomib-induced inhibition of [3H]-thymidine uptake,"MM.1S and RPMI8226 cells; adherent MM.1S and RPMI8226 cells, tubacin with bortezomib",significantly enhances bortezomib-induced inhibition of [^3H]-thymidine uptake; also recorded: further augmented cytotoxicity of Velcade
same,"histone acetylation, transcriptional profile, cell cycle, viability",A549 lung cancer cells,"no effect on histone acetylation, the transcriptional profile, cell cycle, or viability of A549 lung cancer cells"
same,acetylation of α-tubulin,"HDAC6; MM cell lines (MM.1S, RPMI8226), tubacin up to 5 μM, 24 h",significantly induces aceylation of α-tubulin in a dose-dependent fashion; also recorded: causes tubulin hyperacetylation; also recorded: specifically induces acetylation of t-tubulin in a dose-dependent fashion; also recorded: specifically induces acetylation of α-tubulin
same,acetylation of tubulin in BMPCs,"HDAC6; tubacin 5 μM, 12 h, BMPCs of an MM patient",markedly enhanced
same,acetylation of tubulin in PBMCs,"HDAC6; tubacin 5 μM, 12 h, PBMCs of the same MM patient",but not in PBMCs
same,time of peak acetylation of α-tubulin,"HDAC6; tubacin 5 μM, RPMI8226 cells",12 h
same,expression of HDAC6,HDAC6; tubacin treatment (data not shown),not altered
same,synergy with Velcade,MM.1S and RPMI cells; MM.1S and RPMI cells,synergy
same,toxicity and synergy with Bortezomib,MM.1S and RPMI cells; MM.1S cells,toxicity and synergy
same,toxicity and synergy with Bortezomib,MM.1S and RPMI cells; RPMI-8226 cells,toxicity and synergy
same,G2/M arrest triggered by Velcade,MM.1S cells [1]; Velcade 5 nM with tubacin 5 μM,significantly inhibits G2/M arrest
same,cell cycle profile,MM.1S cells [1]; tubacin 5 μM alone,does not alter cell cycle profile
same,growth inhibitory / cytotoxic effect of tubacin in the presence of IL-6,MM.1S cells [2],maintained; also recorded: did not overcome
same,synergy with bortezomib in breast cancer,breast cancer cells,synergy

# — patent US10172905B1, “Treatment of protein degradation disorders” (President and Fellows of Harvard College, priority 2005, dated 2019)
